Common to all, as to format: in vivo
In series [1] the test system is Cowpea Aphid (Aphis craccivora). Kind of series: Cowpea aphid, sprayed potted cowpea plants. Particulars: assessed after 24, 72 and 120 hours, read-out: mortality in comparison with untreated controls. Here is the method: II.3 Cowpea Aphid (Aphis craccivora)
The active compounds were formulated in 50:50 (v/v) acetone:water. The test solution was prepared at the day of use.
Potted cowpea plants colonized with 100-150 aphids of various stages were sprayed after the pest population had been recorded. Population reduction was assessed after 24, 72, and 120 hours.

For series [2], the system named is Vetch Aphid (Megoura viciae). The series is described as follows: Vetch aphid, bean leaf disks in microtiterplates. The note with it: foliar, 144 h, test solution 2500 mg/L, bean leaf disks sprayed with 2.5 μl, 6 days. Here is the method: II.4 Vetch Aphid (Megoura viciae)
The active compounds were formulated in 1:3 (v/v) DMSO:water with different concentrations of formulated compounds.
Bean leaf disks were placed into microtiterplates filled with 0.8% agar-agar and 2.5 ppm OPUS™. The leaf disks were sprayed with 2.5 μl of the test solution and 5 to 8 adult aphids were placed into the microtiterplates which were then closed and kept at 23±1° C. and 50±5% relative humidity under fluorescent light for 6 days. Mortality was assessed on the basis of vital, reproduced aphids. Aphid mortality and fecundity was then visually assessed.

The test system of series [3] is Green Peach Aphid (Myzus persicae). The series is described as follows: Green peach aphid through systemic means, artificial diet under membrane. Particulars: 72 h, pipetted into aphid diet, 3 days, read-out: mortality in comparison with untreated controls. From the text: II.6 Activity Against Green Peach Aphid (Myzus persicae)
For evaluating control of green peach aphid (Myzus persicae) through systemic means the test unit consisted of 96-well-microtiter plates containing liquid artificial diet under an artificial membrane.
The compounds were formulated using a solution containing 75% v/v water and 25% v/v DMSO. Different concentrations of formulated compounds were pipetted into the aphid diet, using a custom built pipetter, at two replications. After application, 5 to 8 adult aphids were placed on the artificial membrane inside the microtiter plate wells. The aphids were then allowed to suck on the treated aphid diet and incubated at about 23+1° C. and about 50+5% relative humidity for 3 days. Aphid mortality and fecundity was then visually assessed.

For series [4], the system named is Cotton Aphid (Aphis gossypii, Mixed Life Stages). Kind of series: Cotton aphid, method b) (electrostatic spray). The note with it: 120 h, infested cotton plants sprayed, after 5 days, read-out: mortality in comparison with untreated controls. Here is the method: (§1) II.1 Cotton Aphid (Aphis gossypii, Mixed Life Stages)
(§2) The active compounds were formulated in cyclohexanone as a 10,0000 ppm solution supplied in 1.3 ml ABgene® tubes. These tubes were inserted into an automated electrostatic sprayer equipped with an atomizing nozzle and they served as stock solutions for which lower dilutions were made in 50% acetone:50% water (v/v). A nonionic surfactant (Kinetic®) was included in the solution at a volume of 0.01% (v/v).
Cotton plants at the cotyledon stage were infested with aphids prior to treatment by placing a heavily infested leaf from the main aphid colony on top of each cotyledon. Aphids were allowed to transfer overnight to accomplish an infestation of 80-100 aphids per plant and the host leaf was removed. The infested plants were then sprayed by an automated electrostatic plant sprayer equipped with an atomizing spray nozzle. The plants were dried in the sprayer fume hood, removed from the sprayer, and then maintained in a growth room under fluorescent lighting in a 24 hour photoperiod at 25° C. and 20-40% relative humidity. Aphid mortality on the treated plants, relative to mortality on untreated control plants, was determined after 5 days.

Series [5] deals with Green Peach Aphid (Myzus persicae, Mixed Life Stages). Kind of series: Green peach aphid, method b) (electrostatic spray, bell pepper plants). Particulars: 120 h, infested bell pepper plants sprayed, after 5 days, read-out: mortality in comparison with untreated controls. How it is done: (§3) II.2 Green Peach Aphid (Myzus persicae, Mixed Life Stages)
as §2
Bell pepper plants at the first true-leaf stage were infested prior to treatment by placing heavily infested leaves from the main colony on top of the treatment plants. Aphids were allowed to transfer overnight to accomplish an infestation of 30-50 aphids per plant and the host leaves were removed. The infested plants were then sprayed by an automated electrostatic plant sprayer equipped with an atomizing spray nozzle. The plants were dried in the sprayer fume hood, removed, and then maintained in a growth room under fluorescent lighting in a 24 hour photoperiod at 25° C. and 20-40% relative humidity. Aphid mortality on the treated plants, relative to mortality on untreated control plants, was determined after 5 days.

The test system of series [6] is Boll Weevil (Anthonomus grandis). The series is described as follows: Boll weevil, insect diet with eggs in 24-well microtiter plates. The note with it: 120 h, test solution 2500 mg/L, 20 μl sprayed onto insect diet, 5 days, read-out: mortality (egg and larval). How it is done: II.5 Boll Weevil (Anthonomus grandis)
The compounds were formulated in 75:25 (v/v) water:DMSO.
For evaluating control of boll weevil (Anthonomus grandis) the test unit consisted of 24-well-microtiter plates containing an insect diet and 20-30 A. grandis eggs. Different concentrations of formulated compounds were sprayed onto the insect diet at 20 μl, using a custom built micro atomizer, at two replications. After application, the microtiter plates were incubated at 23±1° C. and 50±5% relative humidity for 5 days. Egg and larval mortality was then visually assessed.

Series [7] concerns Green Peach Aphids (Myzus persicae). The series is described as follows: Hydroponic test against green peach aphids (bare root pepper plants). The note with it: bare roots immersed 24 hours, assay 3 days, read-out: mortality in comparison with untreated controls. Here is the method:
II.9 Activity in the Hydroponic Tests Against Green Peach Aphids (Myzus persicae)
Green pepper plants (Capsicum annuum L., variety ‘California Wonder’) were grown in the greenhouse from seed to the second true leaf stage (BBCH 12) in Scott's Metro-Mix® 360 (1 to 2 plants per 2¼″ square pot). Cotyledon leaves were removed and roots were rinsed in tap water until free of soil. The roots were kept moist under a layer of wet paper toweling until all plants had been prepared.
(§4) A 3,400 ppm stock solution was prepared of each test compound using reagent grade acetone as the solvent. Subsequent dilutions of 100 and 10 ppm were prepared from this stock with final dilutions in deionized water in 100 ml amber glass bottles. One bare root plant was placed in each bottle using a foam plug section to centrally secure the stem in the bottleneck. The bare roots were fully-immersed in the test suspensions. Host plants were placed in a plant growth room under continuous GroLux® fluorescent lighting (40 Watt), for 24 hours at 25±2° C. and 20-40% relative humidity.
After exposure of the bare roots to the test suspensions, pieces of pepper plants infested with green peach aphid (Myzus persicae) were placed on top of the test foliage. Insects were allowed to transfer from the host leaves to accomplish an infestation of 40-50 insects per plant. The assay was allowed to run for 3 days in the same growth room as used previously. Assessments included estimates of aphid population density reduction relative to the average density of aphids on the untreated control plants. Phytotoxic responses of the host plants were also recorded at this time.

The test system of series [8] is Silverleaf Whitefly (Bemisia argentifolii, Adult). The series is described as follows: Silverleaf whitefly, sprayed cotton plants. Particulars: 72 h, 3 days after treatment, read-out: mortality in comparison with untreated controls. Here is the method:
II.7 Silverleaf Whitefly (Bemisia argentifolii, Adult)
as §2
Cotton plants at the cotyledon stage (one plant per pot) were sprayed by an automated electrostatic plant sprayer equipped with an atomizing spray nozzle. The plants were dried in the sprayer fume hood and then removed from the sprayer. Each pot was placed into a plastic cup and 10 to 12 whitefly adults (approximately 3-5 days old) were introduced. The insects were collected using an aspirator and 0.6 cm, nontoxic Tygon® tubing (R-3603) connected to a barrier pipette tip. The tip, containing the collected insects, was then gently inserted into the soil containing the treated plant, allowing insects to crawl out of the tip to reach the foliage for feeding. Cups were covered with a reusable screened lid (150-micron mesh polyester screen PeCap from Tetko, Inc.). […] Mortality was assessed 3 days after treatment, compared to untreated control plants.

Series [9] deals with Cotton Aphids (Aphis gossypii). Kind of series: Hydroponic test against cotton aphids (bare root cotton plants). Particulars: bare roots immersed 24 hours, assay 3 days, read-out: mortality in comparison with untreated controls. How it is done:
II.10 Activity in the Hydroponic Tests Against Cotton Aphids (Aphis gossypii)
Cotton plants (Gossypium hirsutum, variety ‘Sure Grow 747’) were grown in the greenhouse from seed to the second true leaf stage (BBCH 12) in Scott's Metro-Mix® 360 (1 to 2 plants per 2¼″ square pot). Cotyledon leaves were removed and roots were rinsed in tap water until free of soil. The roots were kept moist under a layer of wet paper toweling until all plants had been prepared.
as §4
After exposure of the bare roots to the test suspensions, pieces of cotton plants infested with cotton aphids (Aphis gossypi) were placed on top of the test foliage. Insects were allowed to transfer from the host leaves to accomplish an infestation of 40-50 insects per plant. […] Phytotoxic responses of the host plants were also recorded at this time.

Series [10] relates to Cotton Aphid (Aphis gossypii, Mixed Life Stages). Kind of series: Cotton aphid, method a) (cotyledon dip). Particulars: 300 ppm; cotton cotyledons dipped; counts after 5 days.
Description: as §1
(§5) The active compounds were formulated in 50:50 (v/v) acetone:water and 100 ppm nonionic surfactant (Kinetic®).
Cotton plants at the cotyledon stage (one plant per pot) were infested by placing a heavily infested leaf from the main colony on top of each cotyledon. The aphids were allowed to transfer to the host plant overnight, and the leaf used to transfer the aphids was removed. The cotyledons were dipped in the test solution and allowed to dry. After 5 days, mortality counts were made.

In series [11] the test system is Green Peach Aphid (Myzus persicae, Mixed Life Stages). Kind of series: Green peach aphid, method a) (leaf dip, pepper plants). Particulars: 300 ppm; pepper plant leaves dipped; after 5 days. Here is the method: as §3, §5
Pepper plants in the 2nd leaf-pair stage (variety ‘California Wonder’) were infested with approximately 40 laboratory-reared aphids by placing infested leaf sections on top of the test plants. The leaf sections were removed after 24 hours. The leaves of the intact plants were dipped into gradient solutions of the test compound and allowed to dry. Test plants were maintained under fluorescent light (24 hour photoperiod) at about 25° C. and 20-40% relative humidity. Aphid mortality on the treated plants, relative to mortality on check plants, was determined after 5 days.

With `Cc1c(-c2noc(=O)n2-c2cccnc2)cnn1CC(F)(F)F` [Example 39, 3-{3-[5-Methyl-1-(2,2,2-trifluoroethyl)-1H-pyrazol-4-yl]-4H-[1,2,4]oxadiazol-5-on-4-yl}pyridine], the mortality at 500 ppm in series [1] is at least 75%. Also, the mortality at 2500 µg/mL in [2] was at least 90%. Also, the mortality at 2500 ppm in series [3] came to 100%.

For the compound `Cc1c(-c2nnc(-c3cccnc3)o2)cnn1CC(F)(F)F` [Example 14, 3-{5-[5-Methyl-1-(2,2,2-trifluoroethyl)-1H-pyrazol-4-yl]-[1,3,4]oxadiazol-2-yl}pyridine], the mortality at 300 ppm in [4] and in series [5] was at least 75% in each case. Moreover, the mortality at 500 ppm in [1] is at least 75%. Further, the mortality at 2500 µg/mL in series [6] is at least 50%.

`Cc1c(-c2nc(-c3cccnc3)co2)cnn1CC(F)(F)F` [Example 4, 3-{2-[5-Methyl-1-(2,2,2-trifluoroethyl)-1H-pyrazol-4-yl]-oxazol-4-yl}pyridine] returned a mortality at 2500 µg/mL in series [2] of at least 90%.

On to `Cc1c(-c2nnc(-c3cccnc3)s2)cnn1CC(F)(F)F` [Example 15, 3-{5-[5-Methyl-1-(2,2,2-trifluoroethyl)-1H-pyrazol-4-yl]-[1,3,4]thiadiazol-2-yl}pyridine], for which the mortality at 300 ppm in [4] and in series [5] was at least 75% in each case. In series [1], the mortality at 500 ppm was at least 75%. Also, the figures for the mortality at 2500 µg/mL in [2] and in [6] were at least 90% and at least 50%, respectively. Further, the mortality at 2500 ppm in [3] stood at 100%. The mortality at 100 ppm in series [7] is at least 75%.

Take `Cc1c(-c2nncn2-c2cccnc2)cnn1CC(F)(F)F` [Example 2, 3-{3-[5-Methyl-1-(2,2,2-trifluoroethyl)-1H-pyrazol-4-yl]-[1,2,4]triazol-4-yl}pyridine]: the mortality at 500 ppm in [1] is at least 75%.

With `Cc1c(-c2nccn2-c2cccnc2)cnn1CC(F)(F)F` [Example 20, 3-{2-[5-Methyl-1-(2,2,2-trifluoroethyl)-1H-pyrazol-4-yl]imidazol-1-yl}pyridine], the mortality at 300 ppm in series [4] and in series [5] was at least 75% in each case. The mortality at 500 ppm in [1] and in series [8] was at least 75% each time. The compound further showed a mortality at 2500 µg/mL in series [2] of at least 90%. Also, in series [3], the mortality at 2500 ppm came out at 100%. Moreover, the mortality at 100 ppm in series [7] and in series [9] was at least 75% each time.

Take `Cn1cc(-c2nncn2-c2cccnc2)c(C(F)(F)F)n1` [Example 1]: the “mortality in comparison with untreated controls” value is on record as “at least 75%” in [10] and “at least 90%” in series [11].

Regarding `Cc1c(C2=NCCN2c2cccnc2)cnn1CC(F)(F)F` [Example 18, 3-{2-[5-Methyl-1-(2,2,2-trifluoroethyl)-1H-pyrazol-4-yl]-4,5-dihydroimidazol-1-yl}pyridine], the mortality at 300 ppm in series [4] and in series [5] was at least 75% each time. The mortality at 500 ppm in [1] was at least 75%. In addition, the mortality at 2500 ppm in [3] stood at 100%. Besides, the mortality at 100 ppm in [7] and in series [9] was at least 75% each time.

For the compound `Cc1c(-c2nc(-c3cccnc3)nn2C)cnn1CC(F)(F)F` [Example 38, 3-{1-methyl-5-[5-methyl-1-(2,2,2-trifluoroethyl)-1H-pyrazol-4-yl]-1H-[1,2,4]triazol-3-yl}pyridine], the mortality at 2500 µg/mL in series [6] is at least 50%.

The values are drawn from US20130253012A1, “Pyrazole Compounds for Controlling Invertebrate Pests” (BASF SE, priority 2010, published 2013).
